Reference: patent publication US6982348B2, “Aminoethanol derivatives” (Takeda Pharmaceutical Company Limited, priority 2001, dated 2006)

Legend:
human CETP [1] = target: T1, human CETP (Homo sapiens, UniProt P11597); assay: Assay of cholesteryl ester transfer protein inhibitory activity, 50% human plasma-containing measurement system; format: biochemical; conditions: BODIPY-CE-ME donor, VLDL-LDL acceptor, reaction at 37° C. for 60 min.
T1 sequence (P11597 18-493): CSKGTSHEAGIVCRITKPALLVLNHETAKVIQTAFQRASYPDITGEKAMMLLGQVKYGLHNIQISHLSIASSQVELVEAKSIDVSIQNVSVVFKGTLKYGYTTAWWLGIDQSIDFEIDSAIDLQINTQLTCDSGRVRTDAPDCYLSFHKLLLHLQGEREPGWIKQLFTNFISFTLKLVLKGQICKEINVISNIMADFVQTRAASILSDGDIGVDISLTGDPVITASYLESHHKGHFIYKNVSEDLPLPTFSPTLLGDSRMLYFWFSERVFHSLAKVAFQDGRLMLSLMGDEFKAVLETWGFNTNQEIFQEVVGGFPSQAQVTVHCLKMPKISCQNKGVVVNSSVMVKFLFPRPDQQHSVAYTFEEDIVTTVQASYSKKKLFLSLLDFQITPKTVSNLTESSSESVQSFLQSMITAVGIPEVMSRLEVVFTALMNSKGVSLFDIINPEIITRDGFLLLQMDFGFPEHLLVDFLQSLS
Experimental: (§1) Assay of Cholesteryl Ester Transfer Protein Inhibitory Activity
(§2) Fresh rabbit serum was adjusted with KBr to the density of (1.063 g/ml), and the fractions (VLDL-LDL, density<1.063 g/ml) floated by ultra-centrifugation operation (SW41—Ti, 40,000 rpm, 18 hrs., 4° C., Beckman model L8-55) were collected, subjected to dialysis against 0.15 M NaCl-10 mM Tris-HCl, pH 7.4 (TBS), sterilized by filtration through a filter and preserved at 4° C.
(§3) A solution of BODIPY-CE (0.6 mg) in chloroform was added to egg PC (phosphatidylcholine) ([…]) and triolein (2 mg), and after dissolution, the lipid was air dried under a nitrogen gas reflux and the solvent was removed under high vacuum. To this lipid was added an apo HDL solution (7.5 ml) obtained by defatting human HDL (1.063<d<1.21) with chloroform-methanol (2:1, v/v), dissolving in 6 M urea-containing TBS and dialyzing against TBS, and the mixture was subjected to sonication (BRANSON SONIFIRE CELL DISRUPTOR 200, dial 6, 5 min×4) to give BOBIPY-CE-ME. After centrifugation (CENTRIPREP 10), it was sterilized by filtration through a filter and preserved at 4° C.
(§4) The test compound (20% DMSO solution, 5 μl), human plasma (75 μl), acceptor lipoprotein (VLDL-LDL, 20 μl) and partially purified human CETP (25 μl) were mixed and incubated at 37° C. for 30 min. BODIPY-CE-ME (25 μl) was added (total 150 μl) and a transfer reaction was started. After reaction at 37° C. for 60 min., fluorescence intensity was measured at Ex. 490 nm/Em. 530 nm. The CETP inhibitory activity (% inhibition) was calculated by the following formula. [formula]
(§5) The IC50 value was determined as a concentration showing 50% inhibition by plotting the logarithm of the concentration of test compound and % inhibition.

human CETP [2] = target: T1, human CETP; assay: Assay of cholesteryl ester transfer protein inhibitory activity, standard measurement system; format: biochemical; conditions: BODIPY-CE-ME donor, VLDL-LDL acceptor, reaction at 37° C. for 30 min.
Experimental: as §1, §2, §3
as §4, with “TS” for “human plasma”, “30” for “60”, “[formula] 4) 50% Human Plasma-Containing Measurement System” for “[formula]”
as §5

SMILES | melting point [°C] | IC50 (human CETP [1]) [µM] | IC50 (human CETP [2]) [µM]
O=C(N[C@H](Cc1cccc(OC(F)(F)C(F)F)c1)[C@@H](O)c1ccc(F)cc1)c1cccc2c1C=CCC2 (racemic) [Example 123, N-[(1RS,2SR)-2-(4-fluorophenyl)-2-hydroxy-1-[3-(1,1,2,2-tetrafluoroethoxy)benzyl]ethyl]-5,6-dihydronaphthalene-1-carboxamide] | 165 to 166 | 0.95 | 0.035
O=C(N[C@H](Cc1cccc(OC(F)(F)C(F)F)c1)[C@@H](O)c1ccc(F)cc1)c1cccc2c1CCCCC2 (racemic) [Example 124, N-[(1RS,2SR)-2-(4-fluorophenyl)-2-hydroxy-1-[3-(1,1,2,2-tetrafluoroethoxy)benzyl]ethyl]-6,7,8,9-tetrahydro-5H-benzo[a]cycloheptene-1-carboxamide] | 194 to 195 | 2.4 | 0.046
O=C(N[C@H](Cc1cccc(OC(F)(F)C(F)F)c1)[C@@H](O)c1ccc(F)cc1)c1ccc(F)c2ccccc12 (racemic) [Example 125, 4-fluoro-N-[(1RS,2SR)-2-(4-fluorophenyl)-2-hydroxy-1-[3-(1,1,2,2-tetrafluoroethoxy)benzyl]ethyl]naphthalene-1-carboxamide] | 186 to 187 | 2 | 0.051
O=C(N[C@H](Cc1cccc(OC(F)(F)C(F)F)c1)[C@@H](O)c1ccc(F)cc1)c1cccc2c1C=CCCCC2 (racemic) [Example 126, N-[(1RS,2SR)-2-(4-fluorophenyl)-2-hydroxy-1-[3-(1,1,2,2-tetrafluoroethoxy)benzyl]ethyl]-5,6,7,8-tetrahydrobenzo[a]cyclooctene-1-carboxamide] | 189 to 190 | 1 | 0.07
CC(C)c1ccc(C[C@@H](NC(=O)c2cccc3c2C=CCCC3)[C@@H](O)c2ccc(F)cc2)cc1 (racemic) [Example 155, N-[(1RS,2SR)-2-(4-fluorophenyl)-2-hydroxy-1-(4-isopropylbenzyl)ethyl]-6,7-dihydro-5H-benzo[a]cycloheptene-1-carboxamide] | 168 to 169 | 2.1 | 0.095
O=C(N[C@H](Cc1cccc(OC(F)(F)C(F)F)c1)[C@@H](O)c1ccc(Cl)cc1)c1cccc2c1C=CCCC2 (racemic) [Example 216, N-[(1RS,2SR)-2-(4-chlorophenyl)-2-hydroxy-1-[3-(1,1,2,2-tetrafluoroethoxy)benzyl]ethyl]-6,7-dihydro-5H-benzo[a]cycloheptene-1-carboxamide] | 182 to 183 | 0.7 | 0.04
CCc1cc(Oc2ccc([C@H](O)[C@@H](Cc3cccc(OC(F)(F)C(F)F)c3)NC(=O)c3cccc4c3C=CCCC4)cc2)ccc1Cl (racemic) [Example 218, N-((1RS,2SR)-2-(4-((4-chloro-3-ethylphenyl)oxy)phenyl)-2-hydroxy-1-((3-((1,1,2,2-tetrafluoroethyl)oxy)phenyl)methyl)ethyl)-6,7-dihydro-5H-benzo[a]cycloheptene-1-carboxamide] | 116 to 117 | 0.66 | 0.056
O=C(N[C@H](Cc1cccc(OC(F)(F)C(F)F)c1)[C@@H](O)c1ccnc(F)c1)c1cccc2c1C=CCCC2 (racemic) [Example 220, N-((1RS,2SR)-2-(2-fluoropyridin-4-yl)-2-hydroxy-1-((3-(1,1,2,2-tetrafluoroethoxy)phenyl)methyl)ethyl)-6,7-dihydro-5H-benzo[a]cycloheptene-1-carboxamide] | 159 to 160 | 1.4 | 0.03
O=C(N[C@H](Cc1ccc2c(c1)OC(F)(F)C(F)(F)O2)[C@@H](O)c1ccc(F)cc1)c1ccc(F)c2ccccc12 (racemic) [Example 271, 4-fluoro-N-{(1RS,2SR)-2-(4-fluorophenyl)-2-hydroxy-1-[(2,2,3,3-tetrafluoro-2,3-dihydro-1,4-benzodioxin-6-yl)methyl]ethyl}-1-naphthamide] | 193 to 194 | 1.4 | 0.17
CC(C)(C)c1ccc(C[C@@H](NC(=O)c2cccc3c(Cl)cccc23)[C@@H](O)c2cccc(Cl)c2)cc1 (racemic) [Example 274, N-[(1RS,2SR)-1-(4-tert-butylbenzyl)-2-(3-chlorophenyl)-2-hydroxyethyl]-5-chloro-1-naphthamide] | 112 to 113 | 3.1 | 0.052
